From article PMC8815882, “Screening the pandemic response box identified benzimidazole carbamates, Olorofim and ravuconazole as promising drug candidates for the treatment of eumycetoma” (PLoS Neglected Tropical Diseases, 2022)
In brackets after ≈: the same amount, converted by molar mass. Where two headings read alike, the source gives them in different places.

Experiments:
[1] = tested on: M. pseudomycetomatis strain Mex2A; test: CLSI M38-A2 based in vitro susceptibility screening at 25 μM; assay type: cell-based, Madurella pseudomycetomatis; conditions: selected if >75% (resazurin) or >80% (XTT) fungal growth inhibited
[2] = tested on: Me. romeroi strain CBS128765; test: as above; assay type: cell-based, Medicopsis romeroi; conditions: selected if >75% (resazurin) or >80% (XTT) fungal growth inhibited
[3] = tested on: ten different M. mycetomatis isolates; test: MIC / MIC50 determination (XTT) in ten M. mycetomatis isolates; assay type: cell-based, Madurella mycetomatis; conditions: Madurella mycetomatis
[4] = tested on: F. senegalensis strain CBS132257; test: CLSI M38-A2 based in vitro susceptibility screening at 25 μM; assay type: cell-based, Falciformispora senegalensis; conditions: selected if >75% (resazurin) or >80% (XTT) fungal growth inhibited
[5] = tested on: M. mycetomatis genome strain MM55; test: CLSI M38-A2 based in vitro susceptibility screening (XTT or resazurin), growth at fixed concentration; assay type: cell-based, Madurella mycetomatis; conditions: for Inhibits growth of Madurella mycetomatis at 25 μM: selected if >75% (resazurin) or >80% (XTT) fungal growth inhibited
M. mycetomatis MM55 = test: IC50 determination, 2-fold dilution series 16 to 0.03125 μM; assay type: cell-based, Madurella mycetomatis; conditions: for IC50 / IC90: Madurella mycetomatis
[6] = tested on: M. tropicana strain CBS206.47; test: CLSI M38-A2 based in vitro susceptibility screening at 25 μM; assay type: cell-based, Madurella tropicana; conditions: selected if >75% (resazurin) or >80% (XTT) fungal growth inhibited
M. mycetomatis = test: Drug static or cidal; assay type: cell-based, Madurella mycetomatis
Source text: Supplement pntd.0010159.s001.xlsx, sheet "Pandemic Box Master sheet" | column: Drug static or cidal

[7] = median MIC over ten M. mycetomatis isolates, no asterisk, read-out: MIC50
[8] = isolate CBS247.48, read-out: MIC CBS247.48
[9] = isolate MM55, read-out: MIC MM55
[10] = Madurella mycetomatis, replicate A, read-out: Percentage survival at 25um, 25 um A
[11] = Madurella mycetomatis, replicate B, read-out: Percentage survival at 25um, 25 uM B
[12] = Madurella mycetomatis, replicate C, read-out: Percentage survival at 25um, 25 uM C
[13] = MM55, Table 2, M. mycetomatis MM55, read-out: IC50
[14] = MM55, replicate 1, read-out: IC50 1
[15] = MM55, replicate 1, read-out: IC90 1
[16] = MM55, replicate 2, read-out: IC50 2
[17] = MM55, replicate 2, read-out: IC90 2
[18] = MM55, replicate 3, read-out: IC50 3
[19] = MM55, replicate 3, read-out: IC90 3
[20] = Madurella mycetomatis, mean of replicates, read-out: Percentage survival at 25um, 25 uM mean
[21] = Madurella mycetomatis, 100 uM, mean of replicates, read-out: Percentage survival at 100um, 100 uM mean
[22] = Madurella mycetomatis, 100 uM, replicate 1, read-out: Percentage survival at 100um, 100 uM A
[23] = Madurella mycetomatis, 100 uM, replicate 2, read-out: Percentage survival at 100um, 100 uM A
[24] = Madurella mycetomatis, 100 uM, replicate 3, read-out: Percentage survival at 100um, 100 uM A
[25] = MM55, mean of replicates, read-out: IC50 mean
[26] = MM55, mean of replicates, read-out: IC90 mean
[27] = Madurella mycetomatis, mean of three replicates, read-out: Percentage survival at 25um, 25 uM mean
[28] = Madurella mycetomatis, 100 uM, mean of three replicates, read-out: Percentage survival at 100um, 100 uM mean
[29] = MM55, replicate 1, read-out: IC50 1 um
[30] = MM55, replicate 1, read-out: IC90 1 um
[31] = MM55, replicate 2, read-out: IC50 2 um
[32] = MM55, replicate 2, read-out: IC90 2 um
[33] = MM55, replicate 3, read-out: IC50 3 um
[34] = MM55, replicate 3, read-out: IC90 3 um

IC50 (M. mycetomatis MM55; [14]) [µM]	IC90 (M. mycetomatis MM55; [15]) [µM]	IC50 (M. mycetomatis MM55; [16]) [µM]	IC90 (M. mycetomatis MM55; [17]) [µM]	IC50 (M. mycetomatis MM55; [18]) [µM]	IC90 (M. mycetomatis MM55; [19]) [µM]	IC50 (M. mycetomatis MM55; [25]) [µM]	SMILES	Inhibits growth of Madurella pseudomycetomatis at 25 μM [1]	Inhibits growth of Madurella mycetomatis at 25 μM [5]	activity at 25 µM [5, 10] [%]	activity at 25 µM [5, 11] [%]	activity at 25 µM [5, 12] [%]	Inhibits growth of Madurella tropicana at 25 μM [6]	activity at 25 µM [5, 20] [%]	activity at 100 µM [5, 21] [%]	activity at 100 µM [5, 22] [%]	activity at 100 µM [5, 23] [%]	activity at 100 µM [5, 24] [%]	Drug static or cidal (M. mycetomatis)	other results
11.7	23.5	13.2	23.6	13.8	24.7		COc1cc(C)c2c(Oc3cccc(C(F)(F)F)c3)c(OC)cc(NC(C)CCCN)c2n1 (centres unmarked) [MMV000043, Tafenoquine, reference compound]	inhibit the growth	inhibit the growth	-2.31	0.422	4.25	inhibit the growth							Inhibits growth of Medicopsis romeroi at 25 μM [2]: inhibit the growth; MIC50 [3, 7]: 4 µM (≈ 1.85 µg/mL); MIC50 ([3]; over the isolates tested, read-out: MIC50 mean): 4 µM (≈ 1.85 µg/mL); MIC [3, 8]: 8 µM (≈ 3.71 µg/mL); MIC [3, 9]: 4 µM (≈ 1.85 µg/mL); MIC ([3]; isolate P1, read-out: MIC P1): 16 µM (≈ 7.42 µg/mL); MIC ([3]; isolate So1, read-out: MIC So1): 16 µM (≈ 7.42 µg/mL); MIC ([3]; isolate i1, read-out: MIC i1): 4 µM (≈ 1.85 µg/mL); MIC ([3]; isolate i11, read-out: MIC i11): 4 µM (≈ 1.85 µg/mL); Inhibits growth of Falciformispora senegalensis at 25 μM [4]: inhibit the growth; activity at 25 µM ([5]; Madurella mycetomatis, mean, read-out: Percentage survival at 25um, 25 uM mean): 0.788%; activity at 100 µM ([5]; Madurella mycetomatis, 100 uM, mean, read-out: Percentage survival at 100um, 100 uM mean): 22.7%; activity at 100 µM ([5]; Madurella mycetomatis, 100 uM, replicate (first column), read-out: Percentage survival at 100um, 100 uM A): 53.1%; activity at 100 µM ([5]; Madurella mycetomatis, 100 uM, replicate (second column), read-out: Percentage survival at 100um, 100 uM A): 6.69%; activity at 100 µM ([5]; Madurella mycetomatis, 100 uM, replicate (third column), read-out: Percentage survival at 100um, 100 uM A): 8.3%; Drug static or cidal (M. mycetomatis MM55): Cidal; IC50 (M. mycetomatis MM55; [13]): 12.8 µM; IC50 (M. mycetomatis MM55; MM55, mean, read-out: IC50 mean): 12.9 µM; IC90 (M. mycetomatis MM55; MM55, read-out: IC90 mean): 23.9 µM
2.8	13.2	9.6	21.1	12.2	21.8	8.22	CCN(CC)CCn1c(=N)n(CC(O)COc2ccc(Cl)cc2Cl)c2ccccc21 (centres unmarked) [MMV000725]			3.92	1.56	2.57		2.68	4.47	4.59	3.57	5.25	Cidal	MIC50 [3, 7]: 16 µM (≈ 7.22 µg/mL); MIC50 ([3]; ten isolates, read-out: MIC50 mean): < 16 µM; MIC [3, 8]: > 16 µM; MIC ([3]; isolate MM14, read-out: MIC MM14): > 16 µM; MIC ([3]; isolate MM45, read-out: MIC MM45): > 16 µM; MIC [3, 9]: > 16 µM; MIC ([3]; isolate P1, read-out: MIC P1): > 16 µM; MIC ([3]; isolate ParijsAl1, read-out: MIC ParijsAl1): > 16 µM; MIC ([3]; isolate Peru72012, read-out: MIC Peru72012): > 16 µM; MIC ([3]; isolate So1, read-out: MIC So1): 16 µM (≈ 7.22 µg/mL); MIC ([3]; isolate i1, read-out: MIC i1): 16 µM (≈ 7.22 µg/mL); MIC ([3]; isolate i11, read-out: MIC i11): > 16 µM; IC50 (M. mycetomatis MM55; [13]): 8.21 µM; IC90 (M. mycetomatis MM55; [26]): 18.7 µM
							CCC(C)NCC(O)Cn1c2ccc(Cl)cc2c2cc(Cl)ccc21 (centres unmarked) [MMV1578570]	inhibit the growth	inhibit the growth	9.54	-1.08	12.6	inhibit the growth							Inhibits growth of Medicopsis romeroi at 25 μM [2]: inhibit the growth; Inhibits growth of Falciformispora senegalensis at 25 μM [4]: inhibit the growth; activity at 25 µM [5, 27]: 7.02%; activity at 100 µM [5, 28]: 3.38%; activity at 100 µM ([5]; Madurella mycetomatis, 100 uM, replicate 1, read-out: Percentage survival at 100um, 100 uM A (first replicate column)): 1.05%; Percent fungal survival at 100 µM ([5]; Madurella mycetomatis, 100 uM, replicate 2, read-out: Percentage survival at 100um, 100 uM A (second replicate column)): 3.75%; activity at 100 µM ([5]; Madurella mycetomatis, 100 uM, replicate 3, read-out: Percentage survival at 100um, 100 uM A (third replicate column)): 5.34%; Drug static or cidal (M. mycetomatis MM55): Static; IC50 (M. mycetomatis MM55; MM55, mean of three replicates, read-out: IC50 mean): 17.1 µM; IC50 (M. mycetomatis MM55; [29]): 21.7 µM; IC90 (M. mycetomatis MM55; [30]): > 25 µM; IC50 (M. mycetomatis MM55; [31]): 17.2 µM; IC90 (M. mycetomatis MM55; [32]): 24.2 µM; IC50 (M. mycetomatis MM55; [33]): 12.5 µM; IC90 (M. mycetomatis MM55; [34]): 21.6 µM
> 25	> 25	> 25	> 25	> 25	> 25	> 25	Cc1ccc(NC(=O)c2cc(Cl)ccc2O)cc1 [MMV1578897]			3.43	0.378	10.8		4.86	2.02	2.19	0.189	3.69	Static	IC90 (M. mycetomatis MM55; [26]): > 25 µM
						15.8	CN1CCN(Cc2ccc(-c3cnc4[nH]cc(-c5ccc6[nH]ccc6c5)c4c3)cc2)CC1 [MMV1580482]			0.0624	1.21	7.33							Static	activity at 25 µM [5, 27]: 2.87%; activity at 100 µM ([5]; Madurella mycetomatis, 100 uM, first replicate column, read-out: Percentage survival at 100um, 100 uM A): 27.2%; activity at 100 µM [5, 28]: 16.3%; activity at 100 µM ([5]; Madurella mycetomatis, 100 uM, second replicate column, read-out: Percentage survival at 100um, 100 uM A): 11.5%; activity at 100 µM ([5]; Madurella mycetomatis, 100 uM, third replicate column, read-out: Percentage survival at 100um, 100 uM A): 10.2%; IC50 (M. mycetomatis MM55; [29]): 17.4 µM; IC90 (M. mycetomatis MM55; [30]): > 25 µM; IC50 (M. mycetomatis MM55; [31]): 15.3 µM; IC90 (M. mycetomatis MM55; [32]): 22.8 µM; IC50 (M. mycetomatis MM55; [33]): 14.6 µM; IC90 (M. mycetomatis MM55; [34]): 22.2 µM
15.2	23.2	11.5	21.7	13.5	> 25	13.4	O=C(Nc1nnc(-c2ccc(Cl)cc2)o1)c1ccc(F)cc1 [MMV1782140]			5.38	8.31	13.2		8.95	2.78	-0.102	3.75	4.7	Cidal	
							OC(Cn1cncn1)(Cn1cncn1)c1ccc(F)cc1F [fluconazole]	inhibit the growth	not M. mycetomatis and M. tropicana				not M. mycetomatis and M. tropicana							
